{
  "source": "ChEMBL document CHEMBL1126004",
  "about": "“Synthesis and resolution of 7-fluorotryptophans” (Bioorg Med Chem Lett, 1991)",
  "assay": "Compound was evaluated for relative ratio (Kcat/Km) between catalyst constant (Kcat) and Michaelis-Menten constant (Km) in a reaction with tryptophan indole-lyase (tryptophanase) from Escherichia coli",
  "data": [
    {"smiles": "N[C@@H](Cc1c[nH]c2c(F)cccc12)C(=O)O", "values": [
      {"measurement": "k cat/Km", "value": 14, "unit": "%"}
    ]},
    {"smiles": "N[C@@H](Cc1c[nH]c2c(F)cc(F)cc12)C(=O)O", "values": [
      {"measurement": "k cat/Km", "value": 30, "unit": "%"}
    ]},
    {"smiles": "N[C@@H](Cc1c[nH]c2ccccc12)C(=O)O", "values": [
      {"measurement": "k cat/Km", "value": 100, "unit": "%"}
    ]},
    {"smiles": "N[C@@H](Cc1c[nH]c2c(F)ccc(F)c12)C(=O)O", "values": [
      {"measurement": "k cat/Km", "value": 6, "unit": "%"}
    ]}
  ]
}
